Read-outs that look alike come from different tables or passages of the source.
Tests used:
[1] = tested on: Aβ42/Aβtotal in CHO cells stably overexpressing human APP; experiment: Aβ sandwich ELISA, CHO cells stably overexpressing human APP; assay type: cell-based, Chinese hamster
[2] = tested on: Aβ42/Aβtotal in HEK293 cells stably overexpressing human APP; assay type: cell-based

Molecule	ratio of Aβ42/Aβtotal (Aβ42 generation) ([1]; CHO-APP, SKF96365 100 μM, nifedipine 1 μM, ω-conotoxin GVIA 1 μM, 12 hour treatment)	ratio of Aβ42/Aβtotal (Aβ42 generation) ([2]; HEK293-APP, SKF96365 100 μM, nifedipine 1 μM, ω-conotoxin GVIA 1 μM, 12 hour treatment)	ratio of Aβ42/Aβtotal (Aβ42 generation) [1]	ratio of Aβ42/Aβtotal (Aβ42 generation) [2]
COc1ccc(CCCOC(Cn2ccnc2)c2ccc(OC)cc2)cc1 (stereo not shown) [SKF96365]	specifically elevated	specifically elevated		
ω-conotoxin GVIA			no significant effect	no significant effect

From patent publication US20020015941A1, “Method for treatment of neurodegenerative diseases” (The General Hospital Corporation, priority 2000, published 2002)
